These results are taken from ChEMBL document CHEMBL3102770, “Development and pharmacological characterization of conformationally constrained urotensin II-related peptide agonists” (J Med Chem, 2013).

Calls of active or inactive are those of the source. The rule behind the calls is not given here. Positions of bridges follow the written chain, without caps; N, C: chain ends. Residues, ends and D or L forms follow the SMILES beside them.

In assay [1] the target is T1, Urotensin-2 receptor (Rattus norvegicus) (UniProt P49684).
T1 sequence (whole entry): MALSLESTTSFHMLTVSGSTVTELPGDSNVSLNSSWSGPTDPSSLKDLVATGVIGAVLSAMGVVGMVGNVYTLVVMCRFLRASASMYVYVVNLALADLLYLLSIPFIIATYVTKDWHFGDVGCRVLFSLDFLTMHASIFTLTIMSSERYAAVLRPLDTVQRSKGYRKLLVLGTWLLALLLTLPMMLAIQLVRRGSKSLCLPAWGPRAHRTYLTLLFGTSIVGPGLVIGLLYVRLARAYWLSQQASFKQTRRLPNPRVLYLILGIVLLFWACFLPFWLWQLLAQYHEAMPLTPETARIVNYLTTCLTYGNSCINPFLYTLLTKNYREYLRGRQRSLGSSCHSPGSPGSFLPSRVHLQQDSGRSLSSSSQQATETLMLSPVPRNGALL
The assay is described as follows: Agonist activity at urotensin-2 receptor in Sprague-Dawley rat aortic rings assessed as KCl-induced vasoconstriction at 10^-5.5 M relative to control.

The target in assay [2] is T2, Urotensin-2 receptor (Rattus norvegicus, UniProt P49684).
T2 sequence (P49684 whole entry): T1 sequence (whole entry)
Kind of assay: Agonist activity at urotensin-2 receptor in Sprague-Dawley rat aortic rings assessed as KCl-induced vasoconstriction.

Assay [3] addresses T3, Urotensin-2 receptor (Homo sapiens, UniProt Q9UKP6).
T3 sequence (Q9UKP6 whole entry): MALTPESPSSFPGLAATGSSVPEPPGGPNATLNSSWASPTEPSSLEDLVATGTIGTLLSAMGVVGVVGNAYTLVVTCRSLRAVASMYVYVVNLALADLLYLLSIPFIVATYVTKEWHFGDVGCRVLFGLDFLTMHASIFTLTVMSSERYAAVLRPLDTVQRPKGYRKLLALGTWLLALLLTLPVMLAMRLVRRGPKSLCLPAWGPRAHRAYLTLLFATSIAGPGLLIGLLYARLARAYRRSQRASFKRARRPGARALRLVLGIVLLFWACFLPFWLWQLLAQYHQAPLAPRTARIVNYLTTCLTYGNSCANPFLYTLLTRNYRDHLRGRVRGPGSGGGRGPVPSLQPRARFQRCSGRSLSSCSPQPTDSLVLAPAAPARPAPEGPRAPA
The assay is described as follows: Displacement of [125I]-Urotensin-2 from human GPR14 expressed in CHO cells after 90 mins by gamma counting analysis. Type of assay: cell-based. In general terms: Displacement assays read how much labelled ligand stays bound in the presence of the test substance.

In assay [4] the target is T1, Urotensin-2 receptor (Rattus norvegicus). Kind of assay: Agonist activity at urotensin-2 receptor in Sprague-Dawley rat aortic rings assessed as KCl-induced vasoconstriction at 3 X 10^-11 to 3 X 10^-6 M relative to control.

Broadly, the Emax is the maximal effect, on the per cent scale that the assay sets.

`CC(C)[C@H](NC(=O)[C@@H]1CSSC[C@H](NC(=O)[C@H](C)N)C(=O)N[C@@H](Cc2ccccc2)C(=O)N[C@H](Cc2cccc3ccccc23)C(=O)N[C@@H](CCCCN)C(=O)N[C@@H](Cc2ccc(O)cc2)C(=O)N1)C(=O)O`: the Emax in assay [1] came out at 34%. Moreover, the EC50 at Urotensin-2 receptor [2] (read-out: EC50) amounted to 0.825 µM.
Consider `CC(C)[C@H](NC(=O)[C@@H]1CSSC[C@H](NC(=O)[C@H](CC(=O)O)NC(=O)[C@@H]2CCCN2C(=O)[C@@H](NC(=O)[C@@H](N)CCC(=O)O)[C@@H](C)O)C(=O)N[C@@H](Cc2ccccc2)C(=O)N2CCC[C@H]2C(=O)N[C@@H](CCCCN)C(=O)N[C@@H](Cc2ccc(O)cc2)C(=O)N1)C(=O)O` (H-ETPDCFPKYCV-OH; disulfide 5-10), for which the Emax in assay [1] was found to be 69%.
In the case of `CC(C)[C@H](NC(=O)[C@@H]1CSSC[C@H](NC(=O)[C@H](C)N)C(=O)N[C@@H](Cc2ccccc2)C(=O)N2CCc3ccccc3[C@@H]2C(=O)N[C@@H](CCCCN)C(=O)N[C@@H](Cc2ccc(O)cc2)C(=O)N1)C(=O)O`, the IC50 on Urotensin-2 receptor [3] (read-out: IC50) came out at 0.021 µM. The Emax in assay [4] was determined as 113%. Moreover, the EC50 on Urotensin-2 receptor [2] (read-out: EC50) is 0.021 µM.
Consider `CC(C)[C@H](NC(=O)[C@@H]1CSSC[C@H](NC(=O)[C@H](C)N)C(=O)N[C@@H](Cc2ccccc2)C(=O)N2Cc3[nH]c4ccccc4c3C[C@@H]2C(=O)N[C@@H](CCCCN)C(=O)N[C@@H](Cc2ccc(O)cc2)C(=O)N1)C(=O)O`, for which the Emax in assay [1] is 42%.
Regarding `CC(C)[C@H](NC(=O)[C@@H]1CSSC[C@H](NC(=O)[C@H](C)N)C(=O)N[C@@H](Cc2ccccc2)C(=O)N2Cc3ccccc3C[C@H]2C(=O)N[C@@H](CCCCN)C(=O)N[C@@H](Cc2ccc(O)cc2)C(=O)N1)C(=O)O`, the Emax in assay [1] stood at 43%. For the same compound, the IC50 on Urotensin-2 receptor [3] (read-out: pIC50 (converted)) is greater than 10 µM. Moreover, the EC50 at Urotensin-2 receptor [2] (read-out: pEC50 (converted)) is greater than 1 µM.
For `CC(C)[C@H](NC(=O)[C@@H]1CSSC[C@H](NC(=O)[C@H](C)N)C(=O)N[C@@H](Cc2ccccc2)C(=O)N[C@H](C(C)(C)C)C(=O)N[C@@H](CCCCN)C(=O)N[C@@H](Cc2ccc(O)cc2)C(=O)N1)C(=O)O`, in that order: 64%, greater than 1 µM and greater than 1 µM.
As for `CC(C)[C@H](NC(=O)[C@@H]1CSSC[C@H](NC(=O)[C@H](C)N)C(=O)N[C@@H](Cc2ccccc2)C(=O)N2CCc3ccccc3[C@H]2C(=O)N[C@@H](CCCCN)C(=O)N[C@@H](Cc2ccc(O)cc2)C(=O)N1)C(=O)O`, the IC50 at Urotensin-2 receptor [3] (read-out: IC50) stood at 0.01 µM. For the same compound, the Emax in assay [4] was determined as 126%. On Urotensin-2 receptor [2] (read-out: EC50), the EC50 was found to be 0.022 µM.
Consider `CC(C)[C@H](NC(=O)[C@@H]1CSSC[C@H](NC(=O)[C@H](C)N)C(=O)N[C@@H](Cc2ccccc2)C(=O)N[C@@H](CC2CCCCC2)C(=O)N[C@@H](CCCCN)C(=O)N[C@@H](Cc2ccc(O)cc2)C(=O)N1)C(=O)O`, for which the Emax in assay [1] worked out at 77%. In addition, the EC50 at Urotensin-2 receptor [2] (read-out: pEC50 (converted)) was greater than 1 µM.
For `CC(C)[C@H](NC(=O)[C@@H]1CSSC[C@H](NC(=O)[C@H](C)N)C(=O)N[C@@H](Cc2ccccc2)C(=O)N[C@@H](Cc2ccc(I)cc2)C(=O)N[C@@H](CCCCN)C(=O)N[C@@H](Cc2ccc(O)cc2)C(=O)N1)C(=O)O`, in assay [1], the Emax was 92%. Besides, the IC50 at Urotensin-2 receptor [3] (read-out: IC50) was 0.058 µM.
Regarding `CC(C)[C@H](NC(=O)[C@@H]1CSSC[C@H](NC(=O)[C@H](C)N)C(=O)N[C@@H](Cc2ccccc2)C(=O)N[C@H]2Cc3c([nH]c4ccccc34)CN(C2=O)[C@@H](CCCCN)C(=O)N[C@@H](Cc2ccc(O)cc2)C(=O)N1)C(=O)O`, the IC50 at Urotensin-2 receptor [3] (read-out: IC50) is 0.808 µM. Moreover, the Emax in assay [4] amounted to 51%. Also, the EC50 is 0.181 µM on Urotensin-2 receptor [2] (read-out: EC50) and 0.38 µM at Urotensin-2 receptor [2] (read-out: pEC50 (converted)).
As for `CC(C)[C@H](NC(=O)[C@@H]1CSSC[C@H](NC(=O)[C@H](C)N)C(=O)N[C@@H](Cc2ccccc2)C(=O)N[C@@H](Cc2cccc3ccccc23)C(=O)N[C@@H](CCCCN)C(=O)N[C@@H](Cc2ccc(O)cc2)C(=O)N1)C(=O)O`, at Urotensin-2 receptor [3] (read-out: IC50), the IC50 amounted to 0.017 µM. Moreover, in assay [4], the Emax is 86%. Further, the EC50 on Urotensin-2 receptor [2] (read-out: EC50) is 0.054 µM.
With `CC(C)[C@H](NC(=O)[C@@H]1CSSC[C@H](NC(=O)[C@H](C)N)C(=O)N[C@@H](Cc2ccccc2)C(=O)N2CCc3ccccc3[C@H]2C(=O)N[C@@H](CCCN)C(=O)N[C@@H](Cc2ccc(O)cc2)C(=O)N1)C(=O)O`, on Urotensin-2 receptor [3] (cho), the IC50 entry was “Not Active”. Further, the Emax entry in assay [4] was “inactive”. At Urotensin-2 receptor [2], the EC50 result is “Not Active”.
As for `CC(C)[C@H](NC(=O)[C@@H]1CSSC[C@H](NC(=O)[C@H](C)N)C(=O)N[C@@H](Cc2ccccc2)C(=O)N[C@@H](C(c2ccccc2)c2ccccc2)C(=O)N[C@@H](CCCCN)C(=O)N[C@@H](Cc2ccc(O)cc2)C(=O)N1)C(=O)O`, in assay [1], the Emax was 23%. Besides, the IC50 on Urotensin-2 receptor [3] (read-out: pIC50 (converted)) is 0.282 µM. At Urotensin-2 receptor [2] (read-out: pEC50 (converted)), the EC50 is greater than 1 µM.
For `CC(C)[C@H](NC(=O)[C@@H]1CSSC[C@H](NC(=O)[C@H](C)N)C(=O)N[C@@H](Cc2ccccc2)C(=O)N2Cc3[nH]c4ccccc4c3C[C@H]2C(=O)N[C@@H](CCCN)C(=O)N[C@@H](Cc2ccc(O)cc2)C(=O)N1)C(=O)O`, at Urotensin-2 receptor [3] (read-out: pIC50 (converted)), the IC50 was greater than 10 µM. The Emax result in assay [4] was “inactive”. For the same compound, the EC50 entry at Urotensin-2 receptor [2] is reported as “Not Active”.
